The values that follow come from a melting point compilation (Tetko et al.; mined from patent text by program, amines drawn as free bases though some values may be those of a salt).

Each structure is given as a SMILES string. Where only a bound is given, the exact number is not on record here.

One may read the melting point as the temperature, or range, at which the solid turns liquid.

`CC(c1oc2ccccc2c(=O)c1-c1cccc(F)c1)n1nc(-c2ccc(F)cc2O)c2c(N)ncnc21` (centres undefined): the melting point is 235 to 237 °C.
Consider `COC(=O)c1cc2c3c(Cl)cc(Cl)cc3n(C)c2s1`, for which the melting point fell in the range of 231 to 232 °C.
The figure for `COC(=O)CCn1c(=O)[nH][nH]c1=O` is 150 to 153 °C; for `CC=CC(=O)Nc1n[nH]c2ccc(C(F)(F)F)cc12` it is 242 °C; for `CN1C(=O)[C@H](NC(=O)CCc2ccc(Cl)cc2Cl)N=C(c2ccccc2)c2ccccc21` it is 92 to 95 °C.
The figure for `N#Cc1ccc(-c2cc3c(Cl)ncnc3[nH]2)cc1` is 296 to 297 °C; for `CC(=O)Oc1ccccc1NC(=O)c1cc(Cl)c(OC(C)=O)c(Cl)c1` it is 154 to 156 °C; for `Cc1nc2c(s1)C(=O)c1ccccc1C2=O` it is greater than 260 °C.
On to `CCNc1nc2cccc(C(=O)OC)c2n1Cc1ccc(-c2ccccc2-c2nnn[nH]2)cc1`, for which the melting point fell in the range of 256 to 258 °C.
Take `O=C(Cn1cc[nH]c(=O)c1=O)OC(c1ccccc1)c1ccccc1`: the melting point was 97 to 98 °C.
The figure for `CN(CCCCOc1ccc(C=C2SC(=O)NC2=O)cc1)c1nc2ccccc2o1` is 168 °C; for `COc1ccccc1-n1c(C(S)c2ncnc3[nH]cnc23)nc2cccc(Cl)c2c1=O` (centres undefined) it is 237 °C; for `Cn1c(=O)n2nc(-c3ccc(Cl)cc3)nc2c2ccccc21` it is 323 to 325 °C.
The figure for `CCCCOC(=O)c1nn(-c2ccc(I)cc2)c(C)cc1=O` is 134 to 137 °C; for `N#CC(CCCCOc1ccccc1)(Cn1cncn1)c1ccccc1` (centres undefined) it is 95 to 96 °C.
The figure for `Cc1nc(C(=O)NC2CC2)c2n1-c1ccc(Cl)cc1C(c1ccccc1F)=NC2` is 196 to 197 °C; for `COc1ccccc1N=C(C)CC(=O)C(F)(F)F` it is 40 °C.
`O=C(O)CN1C(=O)C(NC(=O)Nc2ccc(Cl)cc2)N=C(c2ccccc2)c2ccccc21` (centres undefined) yielded a melting point of 178 to 180 °C.
The figure for `O=C1NC(=O)C2(c3cccc([N+](=O)[O-])c3)CC12` (centres undefined) is 173 to 174 °C.
The figure for `O=C(N/C(=C\c1c[nH]c2ccccc12)C(=O)NCCc1ccccn1)OC1C2CC3CC(C2)CC1C3` (centres undefined) is 188 to 200 °C; for `Nc1ncnc2c1ncn2C1CC(O)C2CC21` (centres undefined) it is 259 to 261 °C.
On to `CCc1nc2c(N)nc3cc(OCc4ccc(C(F)(F)F)o4)ccc3c2s1`, for which the melting point is 152 to 154 °C.
`COc1cc2c(C3=CCNCC3)c[nH]c2cc1Cl` yielded a melting point of 222 to 224 °C.
On to `Cc1c(CC(=O)OCCO)cc(-c2ccc(S(C)(=O)=O)cc2)n1-c1ccc(F)cc1`, for which the melting point fell in the range of 129 to 131 °C.
On to `C=C1[C@H](C(=O)OC)[C@H]1C(=O)OC`, for which the melting point was 34.1 to 34.9 °C.
The compound `Fc1ccc(-c2nc[nH]c2-c2cccs2)cc1` came in with a melting point of 197 to 198 °C.
As for `COc1ccc(-c2cc(CO)c(C)o2)cc1`, the melting point lay in the range of 62 to 64 °C.
As to `COc1cc2c(cc1OC)CN(c1nc(Cl)nc3cc(OC)c(OC)cc13)CC2`, the melting point lay in the range of 183 to 186 °C.
The figure for `CC(C)c1cc2c(cc1Oc1cnc(N)nc1N)OCCN2C` is 167 to 170 °C.
As for `CCn1c(=O)c(C(=O)O)nc2ccc(F)cc21`, the melting point lay in the range of 162 to 164 °C.
Compound `Cc1ccc(Oc2ccc(-c3noc(=O)[nH]3)cc2)c(O)c1` displayed a melting point of 195 to 198 °C.
The figure for `Cc1ccc(S(=O)(=O)N(C)c2cc(C(C)(C)C)c(O)c(C(C)(C)C)c2)cc1` is 130 to 142 °C; for `CC(C)(Oc1ccc(C(=O)c2ccc(Cl)cc2)cc1)C(=O)Oc1ccc(I)cc1` it is 149 to 150 °C; for `O=C1C=CC(OC2CCCC2)N1` (centres undefined) it is 81 to 82 °C.
The figure for `CC(C)C1=Cc2cc(OCC(=O)O)c(Cl)c(Cl)c2C1=O` is 176 °C; for `N#Cc1ccnc(OCc2nc3cc(Cl)ccc3s2)c1` it is 224 to 227 °C.
The figure for `Cc1nc(NCC2CC2)c2nnn(-c3ccc(C(C)C)cc3Br)c2n1` is 166 to 167 °C; for `CCc1nc2c(cnn2CC)c(NC2CCOCC2)c1CNC(=O)c1cccc(C(=O)NCc2ccc(F)c(-c3cccc(CN4CC5CC4CN5)c3)c2)c1` (centres undefined) it is 129 to 133 °C.
Compound `O=C(CCCCC1CCSS1)NC(Cc1c[nH]cn1)C(=O)O` (centres undefined) had a melting point of 122 to 126 °C.
The figure for `CCOC(=O)c1cn(CCc2ccc(OC)cc2)c2cc(C3CC3)nn2c1=O` is 160 to 165 °C; for `Nc1cc(Cl)cc(Cl)c1C(=O)NCc1ccc(F)cc1` it is 89 to 94 °C.
The figure for `N#Cc1cc(F)c(Sc2nc[nH]n2)cc1F` is 185 °C; for `O=C(NC(Cl)C(Cl)(Cl)Cl)c1ccccc1O` (centres undefined) it is 113 to 114 °C.
Consider `O=C(OCC(Cl)(Cl)Cl)N1C2CCC1CC(Sc1ccc(Cl)cc1)C2` (centres undefined), for which the melting point was 70 to 71.5 °C.
On to `COC(=O)c1ccc(-c2ccc3cc(OCc4ccccc4)c(C45CC6CC(CC(C6)C4)C5)cc3c2)s1`, for which the melting point lay within 170 to 171 °C.
`CC(C)(C)OC(=O)C1CC(c2ccc(-c3ccc(N4C[C@H](Cn5ccnn5)OC4=O)cc3F)cn2)=NO1` (some centres undefined) yielded a melting point of 165 to 168 °C.
The figure for `C1=Cn2ccnc2Cc2ccccc21` is 85.5 °C.
The figure for `CCOC(=O)C(O)CCn1cnc2c(Cl)nc(N)nc21` (centres undefined) is 163 to 164 °C; for `CCOc1ccc(Nc2ncc(C(=O)O)c(=O)[nH]2)cc1` it is 250 to 252 °C.
`OCc1cccc2nnsc12` had a melting point of 79 to 81 °C.
The figure for `COc1ccc(C(=O)Cc2c(Cl)cncc2Cl)c2c1OCCCO2` is 150 to 151 °C; for `CC(C)C[C@H](NC(=O)OCC1c2ccccc2-c2ccccc21)C(=O)N[C@H]1CCOC1OCc1ccc2ccccc2c1` (some centres undefined) it is 79 to 80 °C.
In the case of `N#CCC(=O)Nc1ccc(N)c([N+](=O)[O-])c1`, the melting point was 218 to 221 °C.
The figure for `OCCC(O)OCn1ccc2c(Cl)ncnc21` (centres undefined) is 114 °C.
For the compound `OCCCCCCCCCCCCCCCCNCCO`, the melting point fell in the range of 80 to 81.2 °C.
Compound `Cc1cn2cccc(OCc3c(Cl)ccc(S(=O)(=O)N4CCC[C@H]4C(=O)N4CCN(C(=O)c5ccc(C=NN)cc5)CC4)c3Cl)c2n1` came in with a melting point of 159 to 161 °C.
The figure for `COc1cccc(NC(=O)N(C)Cc2cccc3c2CN(C2CCC(=O)NC2=O)C3=O)c1` (centres undefined) is 296 to 298 °C.
The compound `CC(C)(C)OC(=O)Nc1ccc(NC(=O)CCCCC2CCSS2)cc1` (centres undefined) gave a melting point of 190 to 195 °C.
For `COc1ccc(CN2C(=O)CN(Cc3cccc(I)c3)S2(=O)=O)cc1`, the melting point lay in the range of 98 to 100 °C.
The compound `CC1(C)COC(=O)[C@@H]1Oc1ccc(C#N)c(C(F)(F)F)c1` showed a melting point of 89.9 to 90.7 °C.
The figure for `CCOC(=O)C(C)N(c1ccc(S(=O)(=O)c2ccccc2)cc1C(F)(F)F)S(C)(=O)=O` (centres undefined) is 121 °C.
Turning to `CCCOc1ccc(S(=O)(=O)N2CCN(CCOC(=O)CC)CC2)cc1-c1nc2c(CCC)cn(CC)c2c(=O)[nH]1`, the melting point lay in the range of 126 to 128 °C.
The compound `C=CCOc1ccc(C(=O)Oc2ccc(C(=O)O)cc2)cc1C12CC3CC(CC(C3)C1)C2` displayed a melting point of 260 to 261 °C.
The figure for `CC(C)OC(=O)C(C)Oc1ncn(-c2ccc(Cl)cc2Cl)n1` (centres undefined) is 55 to 57 °C.
As for `Cc1ccc2c(=O)c3cc(C(F)(F)F)ccc3sc2c1`, the melting point is 174 to 178 °C.
The figure for `CCOC(=O)/C=C/c1cn(-c2ccc(C(F)(F)F)cn2)nc1C(C)CC` (centres undefined) is 75 to 76 °C.
The figure for `Cc1c(F)c(N2CCNC(C)C2)cc2c1C(=O)CCN2C1CC1` (centres undefined) is 98 to 100 °C; for `CCOC(=O)Cn1c(=O)c(=O)[nH]c2ccc3ccc([N+](=O)[O-])cc3c21` it is greater than 250 °C.
The figure for `OCc1ccc(-c2ccc3nnn(Cc4ccc5ncccc5c4)c3n2)cc1F` is 202 to 204 °C; for `CCC(C)NC1=NS(=O)(=O)c2cc(C(F)(F)F)ccc2N1` (centres undefined) it is 234 to 236 °C.
`C=CCC(=NO)C(C)=NNc1c(Cl)cc(C(F)(F)F)cc1Cl` gave a melting point of 71 to 73 °C.
The compound `CCOCc1nc2ncc(C)nc2c(=O)[nH]1` returned a melting point of 181 to 183 °C.
The compound `Brc1ccc2[nH]cc(C3=CCNCC3)c2c1` registered a melting point of 202 to 204 °C.
For `O=C(NC1CC=CC1)OCc1ccccc1`, the melting point lay in the range of 56 to 57 °C.
The figure for `O=c1[nH]c2ccc([C@H]3CC[C@H](NCCCc4ccccc4)CC3)cc2o1` is 166 to 170 °C; for `O=C(CC1(O)CCC1)N[C@H]1CC[C@H](CCN2CCN(c3nccc4c3CCO4)CC2)CC1` it is 155 °C; for `COc1ccc(-c2ccc(C(N)=O)cc2)cc1OCCCCc1ccccc1` it is 180 to 182 °C.
Regarding `Cc1cc(SC2=C(O)CC(CCc3cccc(O)c3)(CCc3cccc(O)c3)OC2=O)c(C(C)(C)C)cc1CO`, the melting point lay in the range of 92 to 94 °C.
The figure for `Cc1c(-c2ccccc2)oc2c(C(=O)NCC(C)N3CCCCC3)cccc2c1=O` (centres undefined) is 106 to 108 °C; for `CCC(=O)c1ncc(Nc2cc(C)[nH]n2)nc1Nc1ccc(F)cc1` it is 208 to 210 °C.
The figure for `C=CCc1cccc2c(=O)cc(C=Cc3ccccc3)oc12` is 142 °C; for `O=S(=O)(Nc1cc(Br)nc(Br)c1)c1cccc(C(F)(F)F)c1` it is 149 to 151 °C; for `CS(=O)(=O)c1cc2[nH]c(=O)c(=O)n(C3CCCCC3)c2cc1[N+](=O)[O-]` it is greater than 280 °C.
Consider `O=C(CBr)c1cc2ccccc2[nH]1`, for which the melting point was in the range of 125 to 130 °C.
The figure for `CNC(=O)c1cccc(NC(=O)C2(c3ccccc3)CCCC2)c1` is 147 °C; for `Nc1cccc(Cl)c1-c1nc(-c2ccncc2)c(-c2ccc(Cl)cc2)[nH]1` it is 220 to 222 °C.
Compound `Cc1ccc(-c2ccc3c(c2)C=C(C(=O)Nc2ccc(CNCC4CCCCC4)cc2)CCO3)cc1` had a melting point of 154 to 155 °C.
The figure for `Cc1c(NC(=O)CC(C)(C)C)c(C)c2c(c1C(=O)O)OCC2c1ccc(C(C)C)cc1` (centres undefined) is 194 to 195 °C; for `CC(=O)OC1CCC2(C)C(=CCC3C2CCC2(C)C3CC(OC(C)=O)C2OC(C)=O)C1` (centres undefined) it is 127 to 129 °C.
